Results taken from EP0657176B1, “Composition containing a water-insoluble or slightly water-soluble compound with enhanced water-solubility” (priority 1993, dated 1995).
In brackets after ≈: the same amount, converted by molar mass. Like-named read-outs stand apart in the source and are kept apart here.

Key:
[1] = system: Rabbit erythrocytes; test: Hemolytic effect on rabbit erythrocytes (Experiment 1, Fig. 1); details: 0.25% rabbit erythrocyte suspension, 10 mM isotonic phosphate buffer (pH 7.4), 1 to 40 mM, 37°C, 30 minutes
Experimental: (§4) To this was added sodium 6-O-cyclomaltoheptaosyl-(6→1)-α-D-glucosyl-(4→1)-O-α-D-glucuronate (β-CyD-G2-COONa) was added so that the concentration thereof became 1 to 40 mM. The mixture was shaken at 37°C for 30 minutes and then centrifuged to separate the supernatant. […] The amount of hemoglobin bursted in water instead of isotonic phosphate buffer was used as a standard (100%), and the relative ratio to it was indicated as a hemolytic ratio.
(§5) Further, according to the same manner as that described above except using β-cyclodextrin (β-CyD) instead of β-CyD-G2-COONa, the hemolytic ratio was determined.
(§6) (Control: β-cylodextrin 4 mM, 6-O-α-D-glucosyl-(1→4)-α-D-glucosyl-β-cyclodextrin 8 mM)

[2] = target: T1, β-Glucuronidase (Bos taurus, UniProt A3KMY8); test: Stability to enzymatic treatment with β-glucuronidase (Experiment 4, Fig. 6); format: in vitro ADME, Calf liver; details: 10 mM aqueous cyclodextrin, β-glucuronidase 700 unit/ml, 37°C, 0 to 120 minutes; compared with 6-O-α-maltosyl-β-cyclodextrin
T1 construct: purchased; host or cells: calf liver (per earlier reading)
T1 sequence (A3KMY8 1-652): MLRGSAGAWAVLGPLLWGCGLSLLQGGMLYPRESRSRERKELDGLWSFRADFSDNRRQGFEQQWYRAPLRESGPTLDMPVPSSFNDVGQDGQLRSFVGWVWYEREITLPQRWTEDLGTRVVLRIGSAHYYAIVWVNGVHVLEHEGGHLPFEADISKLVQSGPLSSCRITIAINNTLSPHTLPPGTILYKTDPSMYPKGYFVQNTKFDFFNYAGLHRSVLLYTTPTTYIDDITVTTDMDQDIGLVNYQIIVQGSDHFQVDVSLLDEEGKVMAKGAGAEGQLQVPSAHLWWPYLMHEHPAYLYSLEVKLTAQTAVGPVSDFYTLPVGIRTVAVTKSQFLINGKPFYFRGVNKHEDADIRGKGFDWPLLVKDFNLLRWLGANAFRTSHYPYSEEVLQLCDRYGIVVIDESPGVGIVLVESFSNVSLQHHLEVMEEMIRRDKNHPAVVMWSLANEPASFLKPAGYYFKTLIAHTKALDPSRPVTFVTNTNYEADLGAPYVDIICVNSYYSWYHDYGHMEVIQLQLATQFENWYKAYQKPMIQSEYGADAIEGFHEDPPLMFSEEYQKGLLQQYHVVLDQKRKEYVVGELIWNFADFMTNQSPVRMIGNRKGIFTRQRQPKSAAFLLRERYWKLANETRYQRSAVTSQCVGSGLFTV
Experimental: (§1) As a control, 6-O-α-maltosyl-β-cyclodextrin was used. Test method: Each of prescribed amounts of the following enzymes was added to a 10 mM aqueous solution of cyclodextrin to be tested. The mixture was allowed to stand in a water bath at 37°C. 50 µl of each mixture was sampled, and the enzyme was inactivated by heating it at 100°C for 15 minutes, centrifuged at 15,000 rpm for 5 minutes, filtered through Millipore USY-1 (differential molecular weight: 10,000), diluted 10 times and subjected to HPLC analysis. HPLC analytic conditions: • Column; NH2P-50 (Asahipak) • Mobile phase; CH3CN:H2O=48:52 to which 0.005M PIC reagent was added. • Flow rate; 0.8 ml/minute • Detection; RI The ratio of the remaining cyclodextrin at 0 to 120 minutes was determined from the above HPLC analysis of each sample.
(§2) Each unit is as described in the instruction book of the enzyme obtained from above market. Results: Changes of the ratio of remaining 6-O-α-D-glucuronyl(1→4)-α-D-glucosyl-β-cyclodextrin sodium salt (branched cyclodextrin-carboxylic acid salt) and 6-O-α-maltosyl-β-cyclodextrin (branched cyclodextrin) with the passage of time are shown in Figures 3 to 6. In the figures, black triangles represent the branched cyclodextrin-carboxylic acid salt, and black dots represent the branched cyclodextrin.

[3] = system: Human erythrocytes; test: Hemolytic effect on human erythrocytes (Experiment 2, Fig. 2); format: cell-based; details: 0.1M isotonic phosphate buffer (pH 7.4), 5 to 30 mM, 37°C, 30 minutes
Experimental: Human erythrocytes were added to 0.1M isotonic phosphate buffer (pH 7.4) to prepare a 20% suspension. The 20% erythrocyte suspension (100 µl) was added to an isotonic buffer (4 ml) containing β-CyD-G2-COONa in a concentration of 5 to 30 mM.
The results are in Figure 2 together with the above results for comparison.

[4] = target: T2, Glucoamylase (Rhizopus oryzae, UniProt P07683); format: in vitro ADME, Rhizopus sp.; details: 10 mM aqueous cyclodextrin, glucoamylase 2 unit/ml, 37°C, 0 to 120 minutes; compared with 6-O-α-maltosyl-β-cyclodextrin
T2 construct: purchased
T2 sequence (P07683 26-604): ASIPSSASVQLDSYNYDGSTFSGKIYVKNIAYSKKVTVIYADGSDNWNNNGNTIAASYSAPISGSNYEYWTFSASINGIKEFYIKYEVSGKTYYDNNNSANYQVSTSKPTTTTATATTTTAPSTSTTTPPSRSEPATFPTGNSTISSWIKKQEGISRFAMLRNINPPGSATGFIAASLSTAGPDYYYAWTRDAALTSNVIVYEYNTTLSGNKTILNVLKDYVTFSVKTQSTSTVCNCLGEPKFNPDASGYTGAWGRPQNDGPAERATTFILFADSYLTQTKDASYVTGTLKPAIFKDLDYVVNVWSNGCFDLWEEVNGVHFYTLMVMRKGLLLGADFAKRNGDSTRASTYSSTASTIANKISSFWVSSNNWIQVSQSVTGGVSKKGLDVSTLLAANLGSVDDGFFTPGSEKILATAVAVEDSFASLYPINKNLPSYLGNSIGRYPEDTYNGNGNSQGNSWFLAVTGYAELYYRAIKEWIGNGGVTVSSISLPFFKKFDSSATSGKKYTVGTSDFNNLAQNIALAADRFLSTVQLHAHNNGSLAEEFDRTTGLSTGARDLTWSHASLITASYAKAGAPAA
Experimental: as §1, §2

[5] = system: Rabbit erythrocytes; details: phosphate buffer, pH 7.4
Experimental: as §4, §5, §6

[6] = water
[7] = Hemolytic effect on rabbit erythrocytes (Experiment 1, Fig. 1); details: rabbit, erythrocytes, phosphate buffer, pH 7.4
Experimental: as §4, §5, §6

[8] = system: rats; test: Toxicity in rats, intravenous administration every day for 2 weeks (Experiment 3); format: in vivo
Experimental: Four male rats were used. β-CyD-G2-COOH was dissolved in sterilized water. The solution was intravenously administered to rats in daily doses of 1 ml/kg, 3 ml/kg, and 10 ml/kg (containing β-CyD-G2-COOH in amounts of 100 mg/kg, 300 mg/kg, and 1000 mg/kg, respectively) every day for 2 weeks.
As a control, the toxicity of β-CyD-G2 was studied according to the same manner.

[9] = Water-solubility of the cyclodextrins themselves
[10] = cited from earlier work
[11] = Stability to acid: half-life in 0.1N HCl solution
[12] = target: T3, Pullulanase (Klebsiella pneumoniae, UniProt P07206); test: Stability to enzymatic treatment with pullulanase (Experiment 4, Fig. 5); format: in vitro ADME; details: 10 mM aqueous cyclodextrin, pullulanase 10 unit/ml, 37°C, 0 to 120 minutes; read-out: decomposed in the enzymatic treatment with pullulanase
T3 construct: purchased
T3 sequence (P07206 20-1090): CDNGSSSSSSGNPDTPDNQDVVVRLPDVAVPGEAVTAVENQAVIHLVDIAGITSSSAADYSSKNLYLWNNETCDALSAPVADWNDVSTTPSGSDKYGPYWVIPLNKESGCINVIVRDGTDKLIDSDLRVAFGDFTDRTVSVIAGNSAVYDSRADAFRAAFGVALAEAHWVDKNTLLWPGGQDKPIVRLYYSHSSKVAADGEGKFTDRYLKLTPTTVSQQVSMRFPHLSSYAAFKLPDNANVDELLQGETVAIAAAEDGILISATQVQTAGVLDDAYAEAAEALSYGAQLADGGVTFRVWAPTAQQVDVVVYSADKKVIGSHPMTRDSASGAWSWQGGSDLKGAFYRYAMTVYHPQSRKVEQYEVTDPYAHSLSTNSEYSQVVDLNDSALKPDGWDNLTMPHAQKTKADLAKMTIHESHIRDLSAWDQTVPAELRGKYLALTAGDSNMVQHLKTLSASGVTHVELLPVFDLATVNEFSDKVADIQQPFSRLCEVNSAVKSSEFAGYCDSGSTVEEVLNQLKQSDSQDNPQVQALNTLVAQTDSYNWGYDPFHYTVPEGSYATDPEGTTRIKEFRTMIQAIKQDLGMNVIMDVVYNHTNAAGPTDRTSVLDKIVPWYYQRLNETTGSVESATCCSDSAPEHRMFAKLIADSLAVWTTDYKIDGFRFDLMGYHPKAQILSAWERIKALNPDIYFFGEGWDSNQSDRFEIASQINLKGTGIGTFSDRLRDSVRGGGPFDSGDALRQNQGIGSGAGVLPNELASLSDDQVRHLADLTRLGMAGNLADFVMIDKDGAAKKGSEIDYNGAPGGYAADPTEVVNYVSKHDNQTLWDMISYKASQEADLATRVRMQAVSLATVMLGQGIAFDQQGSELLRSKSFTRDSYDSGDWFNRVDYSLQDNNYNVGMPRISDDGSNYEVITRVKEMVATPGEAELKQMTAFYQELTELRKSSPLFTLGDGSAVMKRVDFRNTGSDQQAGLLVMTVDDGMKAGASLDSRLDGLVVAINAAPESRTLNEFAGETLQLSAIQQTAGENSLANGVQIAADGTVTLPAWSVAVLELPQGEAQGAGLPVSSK
Experimental: as §1, §2

[13] = Water-solubility of the antineoplastic agent alone or combined with β-CyD-G2-COONa or β-CyD (Example 1, HPLC); format: physicochemical; details: 6-O-(N-chloroacetylcarbamoyl)fumagillol in water, with β-CyD-G2-COONa or β-CyD 1:2 (mol ratio), lyophilized powder 100 mg + water 1 ml, alone: shaken at 25 °C for 4 hours, 0.22 µm filter, read-out: solubilities of the antineoplastic agent
Experimental: The antineoplastic agent 6-O-(N-chloroacetylcarbamoyl)fumagillol (100 mg) was dissolved in ethanol (4 ml). […] The aqueous solution was added to the ethanol solution and mixed with it with stirring. The resulting solution was lyophilized in vacuo to give powder. Water (1 ml) was added to the powder (100 mg) to obtain a homogeneous aqueous solution, i.e., a composition of the present invention.
On the other hand, the antineoplastic agent alone was added to water, and the mixture was vigorously shaken at 25 °C for 4 hours and filtered through a membrane filter of 0.22 µm.
The antineoplastic agent in the above homogeneous aqueous solution and filtrate was determined by high performance liquid chromatography (HPLC). As a result, the solubilities in Table 1 were obtained.

[14] = Water-solubility of the antineoplastic agent alone or combined with α-CyD-G2-COONa or α-CyD (Example 2, HPLC); format: physicochemical; details: 6-O-(N-chloroacetylcarbamoyl)fumagillol in water, with α-CyD-G2-COONa or α-CyD 1:2 (mol ratio), lyophilized powder 100 mg + water 1 ml, alone: shaken at 25 °C for 4 hours, 0.22 µm filter, read-out: solubilities of the antineoplastic agent
Experimental: (§3) The aqueous solution was added to the ethanol solution and mixed with it with stirring. The resulting solution was lyophilized in vacuo to give powder. Water (1 ml) was added to the powder (100 mg) to obtain a homogeneous aqueous solution, i.e., a composition of the present invention. On the other hand, the antineoplastic agent alone was added to water, and the mixture was vigorously shaken at 25 °C for 4 hours and filtered through a membrane filter of 0.22 µm.
The antineoplastic agent in the above homogeneous aqueous solution and filtrate was determined by high performance liquid chromatography (HPLC). As a result, the solubilities in Table 2 were obtained.

[15] = Water-solubility of the cephalosporin antibiotic alone or combined with β-CyD-G2-COONa or β-CyD (Example 3, HPLC); format: physicochemical; details: cephalosporin antibiotic (free form) in water, with β-CyD-G2-COONa or β-CyD 1:2 (mol ratio), lyophilized powder 100 mg + water 1 ml, alone: shaken at 25 °C for 8 hours, read-out: solubilities of the antibiotic
Experimental: as §3, with “antibiotic” for “antineoplastic agent”, “8” for “4”
The antibiotic in the above homogeneous aqueous solution and filtrate was determined by high performance liquid chromatography (HPLC). As a result, the solubilities in Table 3 were obtained.

[16] = male rats, 100 mg/kg, 300 mg/kg and 1000 mg/kg every day for 2 weeks

sodium 6-O-cyclomaltoheptaosyl-(6→1)-α-D-glucosyl-(4→1)-O-α-D-glucuronate [β-CyD-G2-COONa]
hemolytic effect (hemolytic ratio vs cyclodextrin concentration, Figure 1) [1]: much less hemolytic effect than that of β-CyD | Half-life in 0.1N HCl solution at 60°C: 8 h | stability to the enzymatic treatment with β-glucuronidase [2]: more stable | hemolytic effect (hemolytic ratio vs cyclodextrin concentration, Figure 2) [3]: much less hemolytic effect than that of β-CyD, β-CyD-G1 or β-CyD-G2 | stability to the enzymatic treatment with glucoamylase [4]: more stable | HC50 [5]: 11 mM | solubility [6]: > 200 g/100 ml

OC[C@H]1O[C@@H]2O[C@H]3[C@H](O)[C@@H](O)[C@@H](O[C@H]4[C@H](O)[C@@H](O)[C@@H](O[C@H]5[C@H](O)[C@@H](O)[C@@H](O[C@H]6[C@H](O)[C@@H](O)[C@@H](O[C@H]7[C@H](O)[C@@H](O)[C@@H](O[C@H]8[C@H](O)[C@@H](O)[C@@H](O[C@H]1[C@H](O)[C@H]2O)O[C@@H]8CO)O[C@@H]7CO)O[C@@H]6CO)O[C@@H]5CO)O[C@@H]4CO)O[C@@H]3CO [β-CyD, β-cyclodextrin]
HC50 [7]: 4 mM

6-O-cyclomaltoheptaosyl-(6→1)-α-D-glucosyl-(4→1)-O-α-D-glucuronic acid [β-CyD-G2-COOH]
Pathological and histological examination [8, 16]: no serious findings such as necrosis | death [8, 16]: No rats died | general appearance, diet intake amount, body weight, urine sediments, hematological examination [8, 16]: No abnormality was observed

OC[C@H]1O[C@H](O[C@H]2[C@H](O)[C@@H](O)[C@@H](OC[C@H]3O[C@@H]4O[C@H]5[C@H](O)[C@@H](O)[C@@H](O[C@H]6[C@H](O)[C@@H](O)[C@@H](O[C@H]7[C@H](O)[C@@H](O)[C@@H](O[C@H]8[C@H](O)[C@@H](O)[C@@H](O[C@H]9[C@H](O)[C@@H](O)[C@@H](O[C@H]%10[C@H](O)[C@@H](O)[C@@H](O[C@H]3[C@H](O)[C@H]4O)O[C@@H]%10CO)O[C@@H]9CO)O[C@@H]8CO)O[C@@H]7CO)O[C@@H]6CO)O[C@@H]5CO)O[C@@H]2CO)[C@H](O)[C@@H](O)[C@@H]1O [β-CyD-G2, 6-O-α-maltosyl-β-cyclodextrin]
HC50 [7]: 8 mM | solubility [9]: 1500 mg/mL (≈ 1030 mM) | water-solubility relative to that of β-cyclodextrin ([10]; stated as known): several tens of times that of β-cyclodextrin | half-life [11]: 5 h | Pathological and histological examination ([8]; rats, every day for 2 weeks, 300 mg/kg and 1000 mg/kg groups): renal tubule epithelium vacuolation and necrosis | Urine examination ([8]; rats, every day for 2 weeks, 1000 mg/kg group): occult blood and an increase in LDH and NAG | observed signs (general appearance) ([8]; rats, every day for 2 weeks, groups of 300 mg/kg and 1000 mg/kg): Auricle flush and peripheral swelling in the extremities | metabolised at 2 h, 10000 µM [12]: ~60%

COC1C(OC(=O)NC(=O)CCl)CCC2(CO2)C1C1(C)OC1CC=C(C)C (centres unmarked) [Antineoplastic agent alone]
solubility [13]: 1.8 mg/mL | solubility [14]: 1.8 mg/mL | solubility [15]: 2.5 mg/mL

α-cyclodextrin [α-CyD]
water-solubilities ([10]; water): about 15%
